Data on five compounds can be found in US11446290B2, “Treatment of pain with serotonin-3 receptor agonist” (priority 2017, dated 2022).

What all share (format): in vivo
In data set [1] the test system is Male ddY mice. As to the kind of experiment: Experiment 1: therapeutic effects on pain, foot licking and biting after formalin administration.
Data set [2] relates to Male ddY mice. Put plainly: Experiment 4: effect on amount of activity (supermex). As to conditions: measured for 5 minutes after 30 minutes, FIG. 4. An excerpt: The following Experiments 1 to 5 have been carried out according to the method described in literatures (M Nakamura-Kitamura et al. Brain Research 1406 (2011), 8-17; and M Nakamura-Kitamura et al. Pain Research 27 (2012), 153-164) with minor modifications.
Male ddY mice of 5 weeks old (Japan SLC) were used in the experiments. Regarding the environment context as external senses and sensory stimuli such as tactile sense, visual sense, and feeling, a black cylindrical polypropylene box (diameter: 9.5 cm, height: 7 cm, with a round petri dish having a diameter of 8.5 cm at the bottom) and a translucent polypropylene box (14 cm (length)×9.5 cm (width)×5 cm (height), with a reticular plate at the floor) were used.
In order to study the effect of Compound A on the amount of activity, Compound A (5 mg/kg or 10 mg/kg) or vehicle (i.e., saline comprising 5% DMSO) was intraperitoneally administered to each mouse, and after 30 minutes, the amount of activity of the mouse was measured for 5 minutes using supermex (Muromachi Kikai Co., Ltd.). In the experiment, the vehicle administration group consisted of 7 mice, the Compound A (5 mg/kg) administration group consisted of 7 mice, and the Compound A (10 mg/kg) administration group consisted of 6 mice.

Data set [3] has as its system Male ddY mice. Put plainly: Experiment 5: therapeutic effects on acute pain, formalin test phase 1 and phase 2. As to conditions: 1, 5, 10 mg/kg i.p. 30 minutes before formalin.
Data set [4] concerns Male ddY mice. As to the kind of experiment: Experiment 3: therapeutic effects on pain derived from an emotional component (conditioned pain, saline injection at day 4). As to conditions: for therapeutic effect on pain derived from an emotional component: foot licking of uninjected foot and biting for 5 minutes, FIG. 3; for therapeutic effects on pain derived from an emotional component: experiments using a similar method, dose not given.

As for `NC1CCN(c2cccc(Cl)n2)CC1` [Compound A, 1-(6-chloropyridin-2-yl)piperidin-4-amine], the “foot licking and biting caused by formalin” value with Male ddY mice [1] (5 mg/kg intraperitoneally 30 minutes before formalin (0.67%, 20 μL), measured for 5 minutes, FIG. 1) is listed as “significantly suppress”. Besides, the “therapeutic effect on pain compared to existing drugs” value in the data set on Male ddY mice [1] (mouse, in vivo) is reported as “more excellent therapeutic effect on pain as compared to the existing drugs”. The “effect on the amount of activity” value in the data set with Male ddY mice [2] (5 mg/kg intraperitoneal) and in the data set on Male ddY mice [2] (10 mg/kg intraperitoneal) was “no effect” throughout. The “foot licking and biting caused by formalin, phase 1” value in the data set with Male ddY mice [3] (0 to 5 minutes after formalin, FIG. 5) is “dose-dependently and significantly suppress”. Besides, the “foot licking and biting caused by formalin, phase 2” value with Male ddY mice [3] (5 to 30 minutes after formalin, FIG. 6) was “dose-dependently and significantly suppress”. Besides, the “therapeutic effect on pain derived from an emotional component” value with Male ddY mice [4] (5 mg/kg intraperitoneally 30 minutes before saline at day 4) and in the data set with Male ddY mice [4] (10 mg/kg intraperitoneally 30 minutes before saline at day 4) was “very strong therapeutic effect” throughout. Further, in the data set on Male ddY mice [4] (mouse, in vivo), the “therapeutic effect on pain derived from an emotional component compared to each existing drug” value is listed as “significantly excellent therapeutic effect as compared to each existing drug”.

Turning to `Cl.N=C(N)NC(=N)Nc1cccc(Cl)c1` [Compound B, m-chlorophenylbiguanide hydrochloride], the “therapeutic effects on pain derived from an emotional component” value (shortened to “therapeutic effects on pain derived”) with Male ddY mice [4] is listed as “showed therapeutic effects”.

On to `Cl.N=C(N)NC(=N)Nc1ccccc1` [Compound C, 1-phenylbiguanide hydrochloride], for which the “therapeutic effects on pain derived” value with Male ddY mice [4] is “showed therapeutic effects”.

As for `Cc1[nH]c2ccc(O)cc2c1CCN.Cl` [Compound F, 2-methyl-5-hydroxytryptamine hydrochloride], the “therapeutic effects on pain derived” value with Male ddY mice [4] was “showed therapeutic effects”.

Regarding `Cl.Cn1cc(C(=O)C(=O)N[C@H]2CN3CCC2CC3)c2ccccc21` [G, (R)—N-(1-azabicyclo[2.2.2]oct-3-yl)-2-(1-methyl-1H-indol-3-yl)-2-(1-methyl-1H-indol-3-yl)-2-oxoacetamide hydrochloride], the “therapeutic effects on pain derived” value in the data set with Male ddY mice [4] is “showed therapeutic effects”.
